According to the supplement of paper PMC10307832:

How the values were obtained:
Assay in all cases: relative viability (nuclei count vs DMSO), 5 days (fraction); higher = more cells survive
HCC-827 = test system: HCC-827
Procedure, shortened: (§1)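 For relative viability, nuclei counts in treated wells were divided by those in vehicle wells. Lung cancer cell lines had been pin-tool dosed in 1536-well plates the day after seeding and cultured for 5 days, then fixed and stained in one step (final 0.05% Triton X-100, 1% formaldehyde, 1 ug/ml Hoechst) and imaged at 4×. Doses were one drug alone or a fixed anchor-drug dose plus five library-drug doses (not always all listed) in √10 steps, and values are duplicate-plate medians.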

EMC-BAC-2 = test system: EMC-BAC-2
Procedure, shortened: as §1

NCI-H322M = test system: NCI-H322M
Procedure, shortened: as §1

NCI-H23 = test system: NCI-H23
Procedure, shortened: as §1

EKVX = test system: EKVX
Procedure, shortened: as §1

NCI-H2342 = test system: NCI-H2342
Procedure, shortened: as §1

PC-14 = test system: PC-14
Procedure, shortened: as §1

NCI-H1666 = test system: NCI-H1666
Procedure, shortened: as §1

EPLC-272H = test system: EPLC-272H
Procedure, shortened: as §1

NCI-H2405 = test system: NCI-H2405
Procedure, shortened: as §1

SK-LU-1 = test system: SK-LU-1
Procedure, shortened: as §1

NCI-H1975 = test system: NCI-H1975
Procedure, shortened: as §1

LCLC-103H = test system: LCLC-103H
Procedure, shortened: as §1

LU99A = test system: LU99A
Procedure, shortened: as §1

SW 1573 = test system: SW 1573
Procedure, shortened: as §1

RERF-LC-KJ = test system: RERF-LC-KJ
Procedure, shortened: as §1

NCI-H1563 = test system: NCI-H1563
Procedure, shortened: as §1

LXF-289 = test system: LXF-289
Procedure, shortened: as §1

SW 900 = test system: SW 900
Procedure, shortened: as §1

LK-2 = test system: LK-2
Procedure, shortened: as §1

NCI-H2126 = test system: NCI-H2126
Procedure, shortened: as §1

ChaGo-K-1 = test system: ChaGo-K-1
Procedure, shortened: as §1

COc1nc(C)cnc1NS(=O)(=O)c1cccnc1-c1ccc(-c2nnco2)cc1 [Zibotentan] + CCNC(=O)c1noc(-c2cc(C(C)C)c(O)cc2O)c1-c1ccc(CN2CCOCC2)cc1 [Luminespib] (partner 0.01 µM)
relative viability (HCC-827; first compound 0.08 µM): 0.574 | relative viability (HCC-827; first compound 0.253 µM): 0.501 | relative viability (HCC-827; first compound 0.8 µM): 0.442 | relative viability (HCC-827; first compound 2.53 µM): 0.774 | relative viability (EMC-BAC-2; first compound 0.08 µM): 1.3 | relative viability (EMC-BAC-2; first compound 0.8 µM): 1.13 | relative viability (EMC-BAC-2; first compound 2.53 µM): 1.22 | relative viability (NCI-H322M; first compound 0.08 µM): 0.876 | relative viability (NCI-H322M; first compound 0.253 µM): 0.474 | relative viability (NCI-H322M; first compound 0.8 µM): 0.897 | relative viability (NCI-H322M; first compound 2.53 µM): 0.918 | relative viability (NCI-H23; first compound 0.08 µM): 0.199 | relative viability (NCI-H23; first compound 0.8 µM): 0.231 | relative viability (NCI-H23; first compound 2.53 µM): 0.186 | relative viability (EKVX; first compound 0.08 µM): 0.762 | relative viability (EKVX; first compound 0.253 µM): 0.88 | relative viability (EKVX; first compound 0.8 µM): 0.832 | relative viability (EKVX; first compound 2.53 µM): 0.877 | relative viability (NCI-H2342; first compound 0.08 µM): 0.702 | relative viability (NCI-H2342; first compound 0.253 µM): 0.617 | relative viability (NCI-H2342; first compound 0.8 µM): 0.652 | relative viability (NCI-H2342; first compound 2.53 µM): 0.738 | relative viability (PC-14; first compound 0.08 µM): 0.135 | relative viability (PC-14; first compound 0.8 µM): 0.151 | relative viability (PC-14; first compound 2.53 µM): 0.128 | relative viability (NCI-H1666; first compound 0.08 µM): 0.96 | relative viability (NCI-H1666; first compound 0.253 µM): 0.905 | relative viability (NCI-H1666; first compound 0.8 µM): 1.02 | relative viability (NCI-H1666; first compound 2.53 µM): 1.05 | relative viability (EPLC-272H; first compound 0.08 µM): 0.234 | relative viability (EPLC-272H; first compound 0.253 µM): 0.376 | relative viability (EPLC-272H; first compound 0.8 µM): 0.272 | relative viability (EPLC-272H; first compound 2.53 µM): 0.254 | relative viability (NCI-H2405; first compound 0.08 µM): 0.703 | relative viability (NCI-H2405; first compound 0.253 µM): 0.541 | relative viability (NCI-H2405; first compound 0.8 µM): 0.774 | relative viability (NCI-H2405; first compound 2.53 µM): 0.8 | relative viability (SK-LU-1; first compound 0.08 µM): 0.236 | relative viability (SK-LU-1; first compound 0.253 µM): 0.171 | relative viability (SK-LU-1; first compound 0.8 µM): 0.213 | relative viability (SK-LU-1; first compound 2.53 µM): 0.194 | relative viability (NCI-H1975; first compound 0.08 µM): 0.305 | relative viability (NCI-H1975; first compound 0.253 µM): 0.0756 | relative viability (NCI-H1975; first compound 0.8 µM): 0.198 | relative viability (NCI-H1975; first compound 2.53 µM): 0.218 | relative viability (LCLC-103H; first compound 0.08 µM): 0.913 | relative viability (LCLC-103H; first compound 0.253 µM): 0.682 | relative viability (LCLC-103H; first compound 0.8 µM): 0.982 | relative viability (LCLC-103H; first compound 2.53 µM): 0.927 | relative viability (LU99A; first compound 0.08 µM): 0.275 | relative viability (LU99A; first compound 0.253 µM): 0.242 | relative viability (LU99A; first compound 0.8 µM): 0.245 | relative viability (LU99A; first compound 2.53 µM): 0.243 | relative viability (SW 1573; first compound 0.08 µM): 0.341 | relative viability (SW 1573; first compound 0.8 µM): 0.348 | relative viability (SW 1573; first compound 2.53 µM): 0.269 | relative viability (RERF-LC-KJ; first compound 0.08 µM): 1.3 | relative viability (RERF-LC-KJ; first compound 0.253 µM): 1.18 | relative viability (RERF-LC-KJ; first compound 0.8 µM): 1.44 | relative viability (RERF-LC-KJ; first compound 2.53 µM): 1.35 | relative viability (NCI-H1563; first compound 0.08 µM): 0.474 | relative viability (NCI-H1563; first compound 0.253 µM): 0.499 | relative viability (NCI-H1563; first compound 0.8 µM): 0.552 | relative viability (NCI-H1563; first compound 2.53 µM): 0.559 | relative viability (LXF-289; first compound 0.08 µM): 0.657 | relative viability (LXF-289; first compound 0.253 µM): 0.683 | relative viability (LXF-289; first compound 0.8 µM): 0.627 | relative viability (LXF-289; first compound 2.53 µM): 0.756 | relative viability (SW 900; first compound 0.08 µM): 0.203 | relative viability (SW 900; first compound 0.253 µM): 0.174 | relative viability (SW 900; first compound 0.8 µM): 0.177 | relative viability (SW 900; first compound 2.53 µM): 0.172 | relative viability (LK-2; first compound 0.08 µM): 0.216 | relative viability (LK-2; first compound 0.253 µM): 0.208 | relative viability (LK-2; first compound 0.8 µM): 0.168 | relative viability (LK-2; first compound 2.53 µM): 0.154 | relative viability (NCI-H2126; first compound 0.08 µM): 0.978 | relative viability (NCI-H2126; first compound 0.8 µM): 0.896 | relative viability (NCI-H2126; first compound 2.53 µM): 0.919 | relative viability (ChaGo-K-1; first compound 0.08 µM): 0.568 | relative viability (ChaGo-K-1; first compound 0.253 µM): 0.683 | relative viability (ChaGo-K-1; first compound 0.8 µM): 0.588 | relative viability (ChaGo-K-1; first compound 2.53 µM): 0.503
